The source of these data is US20090253134A1, “Cellular Pyrogen Test” (Fraunhofer-Gesellschaft zur Forderung der angewandten …, priority 2006, published 2009).

The target of assay [1] is T1, TLR-5 (Homo sapiens, UniProt O60602). The assay can be described thus: Comparative TLR-5 test with HELA cells transfected with TLR-5 SEAP. It counts as cell-based. Set-up: expressed in transfected cells. The conditions noted are these: 2 μg/mL flagellin; induced and noninduced controls both intensely blue. The protocol:
FIG. 13 comparative experiment: TLR-5 test with HELA cells transfected with TLR-5 SEAP induced with 2 μg/mL flagellin; both the induced cells and the noninduced controls show intense blue coloration.

Assay [2] concerns the target T1, TLR-5. Description: NIH-3T3 TLR-5 SEAP reporter gene test. It counts as cell-based. Set-up: expressed in transfected cells; host or cells: NIH-3T3 (murine fibroblasts). The conditions noted are these: 2 μg/mL flagellin; BCIP. The protocol:
The cell line NIH-3T3 was transfected with TLR-5 and the reporter gene plasmid SEAP. The measures correspond to example 1.
NIH-3T3 clone TLR-5 was inoculated in a density of 30,000 to 200,000 cells/well (24-well) in 500 μL/well in 0.5% FCS medium; induction occurs with 2 μg/mL flagellin; detection by incubation with 300 μL/well detection medium with BCIP.

Assay [3] addresses T2, TLR-4/CD14 (Homo sapiens, UniProt O00206+Q9Y6Y9).
T2 construct: expressed in transfected cells; host or cells: NIH-3T3 (murine fibroblasts), clone 4/5
Description: NIH-3T3 TLR-4/CD14 SEAP reporter gene pyrogen test. It is filed as cell-based. The source says: The cell line NIH-3T3 was transfected with a TLR-4/CD14 complex as well as the reporter gene plasmid SEAP/ELAM-1.
The endotoxin (LPS)-mediated induction of TLR-4 leads according to a signal cascade to activation of the transcription factor NF-κB. Expression of the reporter gene SEAP is controlled by an ELAM-1 promoter inducible by NF-κB. NF-κB activation and therefore specifically secretion of SEAP then occurs on induction of TLR-4 by the endotoxin lipopolysaccharide LPS.
NIH-3T3 TLR-4/CD14 clone 4/5 P35 in a density of 30,000 to 200,000 cells/well (24-well) (corresponding cell count for other well volume) are inoculated in 500 μL/well in 0.5% FCS medium o/n for adhesion.
On the next day detection occurs by incubation with 300 μL/well detection medium, which is added directly to the induced cells: in the induced cells SEAP activity converts the substrate BCIP in the detection medium to a dark blue insoluble end product (indigo). As an alternative SEAP activity in the induced cells converts the substrate pNPP in the detection medium to a light yellow soluble color complex, which is determined photometrically at about 405 nm. The photometric analysis occurs about 2 hours after addition of the detection medium.
In one variant transfected cell lines are frozen in the corresponding assay format, here: a cell culture-well-plate (multiwell plate) in corresponding density (200,000 cells/well in 500 μL each (in 24-well)).
After thawing of the kit, addition of DMEM culture medium occurs for adhesive of the cells overnight. A medium with HEPES buffer permits incubation of the cell test in a heating cabinet, i.e., without CO2 gassing. Induction is carried out per test by addition of 100 ng/mL LPS. The detection is conducted after 24 hours by addition of 300 μL/well BCIP detection medium.
On a multiwell plate (96-well) NIH-3T3 TLR-4/CD14 SEAP P40 cells were frozen in a density of 30,000 cells/well in 100 μL medium (DMEM 80 mmol/L HEPES, 30% FCS and 5% DMSO) in suspension at −80° C.
After 72 hours to 4 weeks at −80° C. the cells were thawed by addition of 100 μL medium (10% FCS) at 37° C. […]
A general note: A reporter such as luciferase makes a cellular process visible.

Assay [4] concerns the target T3, TLR-4/CD14 (Homo sapiens, UniProt O00206).
T3 construct: expressed in transfected cells; host or cells: HEK blue 293 and other 293 cells (clones K2, K4)
The assay can be described thus: SDS-PAGE/Western Blot analysis of SEAP expression in HEK293 and other 293 cells transfected with TLR-4/CD14 SEAP. It counts as cell-based. The note with it: 100 ng/mL LPS; cell pellets. The protocol:
(§1) HEK blue 293 fibroblasts and other 293 fibroblasts were transfected with TLR-4/CD14 SEAP and induced with 100 ng/mL LPS. All other process parameters were chosen as in example 1 according to the invention.
In addition, a Western Blot analysis of gene expression was conducted in known fashion: first antibody: anti-SEAP; conjugated second antibody: anti-mouse POD; marker: SeeBlue® Plus2; prestained standard.
For orientation: A western blot detects proteins with antibodies after separation by electrophoresis.

The test system of the next assay is human whole blood cells. The note with it: cited from earlier work.
Assay [5] has as its system Limulus amebocyte lysate proenzyme. The conditions noted are these: cited from earlier work.
Assay [6] deals with T3, TLR-4/CD14. The assay can be described thus: Comparative TLR-4 colour test with HEK blue 293 and other 293 fibroblasts transfected with TLR-4/CD14 SEAP. It counts as cell-based. The conditions noted are these: 100 ng/mL LPS; induced and noninduced controls both turn blue. The protocol: as §1

“Also recorded” adds a separate entry of the source.

T3 sequence (O00206 24-839): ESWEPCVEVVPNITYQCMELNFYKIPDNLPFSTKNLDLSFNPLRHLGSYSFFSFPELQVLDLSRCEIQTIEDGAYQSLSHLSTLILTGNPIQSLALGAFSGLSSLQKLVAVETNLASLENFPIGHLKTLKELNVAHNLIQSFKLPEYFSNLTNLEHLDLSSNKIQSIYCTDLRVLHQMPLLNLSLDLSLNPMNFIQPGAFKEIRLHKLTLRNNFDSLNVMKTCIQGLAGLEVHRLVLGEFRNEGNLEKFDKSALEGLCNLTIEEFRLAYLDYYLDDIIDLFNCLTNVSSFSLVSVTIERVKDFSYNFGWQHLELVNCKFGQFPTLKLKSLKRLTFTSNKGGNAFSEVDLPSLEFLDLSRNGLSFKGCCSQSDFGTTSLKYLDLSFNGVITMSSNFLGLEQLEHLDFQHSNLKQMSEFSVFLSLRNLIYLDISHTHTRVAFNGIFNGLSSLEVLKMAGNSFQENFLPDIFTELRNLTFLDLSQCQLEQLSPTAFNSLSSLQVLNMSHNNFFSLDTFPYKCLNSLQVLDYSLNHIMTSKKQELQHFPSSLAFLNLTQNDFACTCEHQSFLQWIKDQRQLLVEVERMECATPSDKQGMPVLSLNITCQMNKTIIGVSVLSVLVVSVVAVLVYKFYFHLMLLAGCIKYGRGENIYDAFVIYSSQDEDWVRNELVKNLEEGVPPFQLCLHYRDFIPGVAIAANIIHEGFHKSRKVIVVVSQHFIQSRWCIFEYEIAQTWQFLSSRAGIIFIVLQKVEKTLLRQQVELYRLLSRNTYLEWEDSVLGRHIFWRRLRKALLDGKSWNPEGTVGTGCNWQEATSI
T2 sequence (O00206 24-839): as above
T2 sequence (Q9Y6Y9 17-160 limits assumed): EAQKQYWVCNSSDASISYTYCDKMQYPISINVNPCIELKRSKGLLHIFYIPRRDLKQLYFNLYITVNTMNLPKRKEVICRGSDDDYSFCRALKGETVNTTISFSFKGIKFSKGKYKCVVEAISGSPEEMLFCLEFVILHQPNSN
T1 sequence (O60602 21-858): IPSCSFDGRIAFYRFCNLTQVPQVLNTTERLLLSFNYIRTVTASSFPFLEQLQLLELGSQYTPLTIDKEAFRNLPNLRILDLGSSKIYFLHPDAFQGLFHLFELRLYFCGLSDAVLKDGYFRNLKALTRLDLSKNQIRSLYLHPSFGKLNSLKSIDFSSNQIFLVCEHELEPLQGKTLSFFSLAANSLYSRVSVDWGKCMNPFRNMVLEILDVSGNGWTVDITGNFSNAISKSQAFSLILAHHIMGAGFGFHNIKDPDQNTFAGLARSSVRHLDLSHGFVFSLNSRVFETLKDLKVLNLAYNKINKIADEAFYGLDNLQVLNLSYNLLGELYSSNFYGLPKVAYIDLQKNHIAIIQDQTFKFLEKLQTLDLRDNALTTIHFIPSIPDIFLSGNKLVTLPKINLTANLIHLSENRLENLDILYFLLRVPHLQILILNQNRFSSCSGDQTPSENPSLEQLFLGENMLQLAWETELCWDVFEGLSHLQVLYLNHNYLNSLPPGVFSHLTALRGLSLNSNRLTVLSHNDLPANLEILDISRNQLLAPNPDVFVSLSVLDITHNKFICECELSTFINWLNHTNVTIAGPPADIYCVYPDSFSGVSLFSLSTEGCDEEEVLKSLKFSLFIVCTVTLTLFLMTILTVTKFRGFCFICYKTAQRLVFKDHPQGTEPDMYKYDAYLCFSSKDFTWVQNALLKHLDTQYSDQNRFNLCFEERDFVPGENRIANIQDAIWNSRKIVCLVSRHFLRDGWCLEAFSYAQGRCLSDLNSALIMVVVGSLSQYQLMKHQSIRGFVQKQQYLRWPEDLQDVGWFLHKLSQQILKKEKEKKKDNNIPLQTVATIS

Consider flagellin, for which the “specific induction / color test” value on TLR-5 [1] is given as “No specific induction is possible”. For the same substance, the “blue coloration of induced cells” value at TLR-5 [2] is “specific blue coloration”.
In the case of Poly IC, on TLR-4/CD14 [3] (induced with 25 μg/mL nonspecific pyrogen each), the “color change of detection medium (specificity)” value was “no color change”.
Take lipopolysaccharide [LPS]: at TLR-4/CD14 [4], the “alkaline phosphatase (SEAP) expression, induced vs noninduced cells” value is recorded as “in the same amount”. In addition, in the assay with human whole blood cells, the “sensitivity of IPT” value is 20 to 50 pg/mL. Further, in assay [5], the “detection limit / sensitivity of LAL” value is reported as 3 pg/mL. Further, on TLR-4/CD14 [6], the “specific induction / color test” value was “no specific induction; also recorded: a specific detection is not possible”. In addition, at TLR-4/CD14 [3] (100 pg/mL, NIH-3T3 TLR-4/CD14 SEAP P40, induction after 24 hours, detection after 3 hours), the “blue coloration of induced cells, frozen and rethawed cells” value is “specific blue coloration”. In addition, on TLR-4/CD14 [3] (100 ng/mL LPS, thawed NIH-3T3 clone 4/5 TLR-4/CD14, BCIP), the “SEAP activity, BCIP color reaction after thawing” value is “deep dark blue”.
